One data set concerns Caco-2 cells. Kind of data set: In vitro Caco-2 monolayer model, apical to basolateral transport (P app). Type of data set: in vitro ADME, human. As to conditions: Caco-2 monolayer, HBSS pH 6.0, apical to basolateral. The protocol: Caco-2 cells were cultured in high glucose DMEM with 10% fetal bovine serum, 1% nonessential amino acids. Cells were cultured in a humidified atmosphere of 5% CO2 at 37°C. After reaching 80% confluens, Caco-2 cells were harvested with 0.05% trypsin-EDTA solution and seeded on top of CC inserts in 6-well plates, which has a surface area of 4.2 cm^2, at a density of 1.0×10^5 cells/cm^2. The protocols for cell culture in Transwell inserts were similar to those described previously.
Hank’s balanced salt solution (HBSS) was used as the transport buffer for the transport study in Caco-2 cells monolayer model. It was prepared by dissolving 9.5 grams of commercial available HBSS powder in 1000 mL water.
Cell culture experiments were described previously. Briefly, after culture medium was aspirated, the cell monolayers were washed three times with blank HBSS. […] The monolayers were incubated with the blank HBSS for 1 h with 37°C. Thereafter the incubation medium was aspirated. Afterwards, a solution containing the compound was loaded onto the apical side. The amounts of transported compound were measured as a function of time. […] The samples were taken at 0, 1, 2, 3 and 4 h after incubation. At the end of the transport experiment, integrity of the monolayer was monitored by TEER value.
In general terms: Caco-2 monolayers are a common model of the intestinal barrier.

A short description of data set [1]: Rat in vivo pharmacokinetics study after oral administration of product A, B or C. Also on record: species or system Male Sprague-Dawley (SD) rats; AUC 0→t in product C group, increased to % compared to that in product A or B groups: concentration or dose not given beside the values. Conditions: for AUC(0-t) / AUC(0-inf) / MRT / Tmax / half-life / Cmax: male, Sprague-Dawley, rat, plasma; for AUC(0-t) / AUC(0-inf) / MRT / Tmax / half-life: 10 mL·kg^−1; for AUC(0-t) / AUC 0→t in product C group, increased to % compared to that in product A or B groups: rats; for AUC(0-t): oral product C group; for AUC(0-inf) / MRT / Tmax / half-life / Cmax: po, 10 mL·kg^−1, rats; for half-life: read-out: T 1/2z; for Cmax: mean±SD; for AUC 0→t in product C group, increased to % compared to that in product A or B groups: oral, product C versus product A or B. The protocol:
Product A (extract mixed with FLJ extract and water, (1∶1, v / v )), product B (extract mixed with FF extract and water, (1∶1, v / v )) and product C (extract mixed with FLJ and FF extracts, (1∶1, v / v )) were given to oral administration to rats, respectively.
Male SD rats (∼250 g) were kept in an environmentally controlled breeding room (temperature: 20±2°C, relative humidity: 60±5%) for 1 week. […] The rats were randomly divided into three groups with no less than six rats in each group to receive various administrations at a single oral dose (10 mL·kg^−1) by gastric gavage. […] Subsequently, plasma was prepared by centrifugation at 1,816×g, 4°C for 7 min, and immediately analyzed or stored at −70°C for further analysis.
The main pharmacokinetic parameters including the peak plasma concentration (C max), the time to C max (T max), the AUC from 0 to infinity (AUC 0–∞), the AUC form 0 to time (AUC 0–t), mean residence time (MRT), and terminal elimination half-life (T 1/2z) were calculated by the non-compartmental analysis of plasma concentration vs. time data using the “DAS 2.1.1” software (Mathematical Pharmacology Professional Committee of China, Shanghai, China).

For the next data set, the system named is P-gp, MRP2 and BCRP. Also on record: method as in PMID 24035225, PMID 25442264. As to conditions: previous study; ref [21]–[22]; cited from earlier work.
Where [2] appears, read: single oral dose 10 mL·kg^−1 of product A (FLJ extract and water 1:1).
Setting [3] is: single oral dose 10 mL·kg^−1 of product C (FLJ and FF extracts 1:1).

Read-outs that look alike come from different tables or passages of the source.

Data on 3 compounds can be found in PMC4183595, “Study on the Main Components Interaction from Flos Lonicerae and Fructus Forsythiae and Their Dissolution In Vitro and Intestinal Absorption in Rats” (PLoS ONE, 2014).

Turning to `O=C(/C=C/c1ccc(O)c(O)c1)O[C@@H]1C[C@@](O)(C(=O)O)C[C@@H](O)[C@@H]1O` [Neochlorogenic acid], the “P app in product C group, % compared to that in product A group” value (“P app in product C group, %” below) in the data set with Caco-2 cells is 136%. For the same compound, in data set [1], the area under the curve AUC(0-t) (commonly the area under the concentration-time curve up to a stated or last time point) is 259 ng·h/mL and the “AUC 0→t in product C group, increased to % compared to that in product A or B groups” value came out at 286%. Also, in data set [1] (oral product A), the area under the curve AUC(0-inf) (usually total exposure, with the tail of the curve extrapolated) is 138 ng·h/mL; the mean residence time MRT – broadly, a mean duration of stay, worked out from the concentration-time curve – was 5.37 h; the Tmax (commonly the time at which the peak concentration occurs) was 0.167 h; the half-life was 7.63 ± 0.637 h. In data set [1] (oral product C), the AUC(0-inf) is 404 ng·h/mL, the MRT was 6.45 h, the Tmax is 0.167 h and the half-life was 8.58 ± 0.467 h. In data set [1] (setting [2]), the maximum concentration (Cmax) (as a rule, the highest concentration seen after dosing) is 75.7 ± 30.1 ng/mL. This compound also yielded a peak concentration (Cmax) in data set [1] (setting [3]) of 181 ± 65 ng/mL. Besides, in the data set on P-gp, MRP2 and BCRP, the “efflux transporters influencing the intestinal absorption” value is “influenced by P-gp, MRP2 and BCRP”.
On to `O=C(/C=C/c1ccc(O)c(O)c1)O[C@@H]1C[C@](O)(C(=O)O)C[C@@H](O)[C@H]1O` [Chlorogenic acid], for which, in the data set with Caco-2 cells, the “P app in product C group, %” value was found to be 140%. For the same compound, in data set [1], the AUC(0-t) was 1270 ng·h/mL and the “AUC 0→t in product C group, increased to % compared to that in product A or B groups” value is recorded as 215%. In data set [1] (oral product A), the area under the curve AUC(0-inf) was 707 ng·h/mL, the mean residence time (MRT) was 5.78 h, the Tmax was 0.167 h and the half-life amounted to 5.37 ± 0.733 h. In data set [1] (oral product C), the MRT is 8.28 h, the time of peak concentration (Tmax) is 0.167 h and the half-life came to 7.68 ± 0.535 h. The same compound had a Cmax in data set [1] (setting [2]) of 367 ± 169 ng/mL. Further, the highest concentration (Cmax) in data set [1] (setting [3]) turned out to be 661 ± 294 ng/mL. Also, the “efflux transporters influencing the intestinal absorption” value in the data set on P-gp, MRP2 and BCRP was “influenced by P-gp, MRP2 and BCRP”.
Turning to `O=C(/C=C/c1ccc(O)c(O)c1)O[C@H]1[C@H](O)C[C@](O)(C(=O)O)C[C@H]1O` [Cryptochlorogenic acid], the “P app in product C group, %” value in the data set with Caco-2 cells was 133%. In data set [1], the exposure AUC(0-t) is 321 ng·h/mL and the “AUC 0→t in product C group, increased to % compared to that in product A or B groups” value was 235%. Moreover, in data set [1] (oral product A), the AUC(0-inf) was 196 ng·h/mL, the MRT was 5.55 h, the Tmax is 0.167 h and the half-life was determined as 1.73 ± 0.782 h. In addition, in data set [1] (oral product C), the AUC(0-inf) was 351 ng·h/mL, the MRT was 7.55 h, the Tmax was 0.167 h and the half-life turned out to be 4.65 ± 0.287 h. In data set [1] (setting [2]), this compound displayed a maximum concentration (Cmax) of 352 ± 29.4 ng/mL. Besides, the Cmax in data set [1] (setting [3]) came out at 449 ± 22.8 ng/mL. Moreover, in the data set with P-gp, MRP2 and BCRP, the “efflux transporters influencing the intestinal absorption” value is “influenced by P-gp, MRP2 and BCRP”.
